# System: BMDC primary cells
# Experiment: Luc mRNA LNP transfection on BMDC primary cells (Embodiment 13, Table 3)
# Format: cell-based, C57BL/6 mice
# Settings: 16 h, ONE-Glo Luciferase
# Method: Preparation method: the same as that described in Embodiment 7.
# Animal preparation: 6-week-old female C57BL/6 mice with the body weight about 20 g were selected. The feeding environment was an SPF stage feeding room. Animal tests were strictly performed according to the guide of the national health institute and the animal ethics requirements.
# Cell acquisition: C57BL/6 mice were killed through cervical dislocation, and were soaked for 5 min in 75% ethyl alcohol. Dissection was performed to obtain thigh and calf tibiae of the mice. Attached muscles were removed to expose sclerotin. Then, bone marrow in tibiae was blown out by using a 1 mL injector sucked with PBS. After the bone marrow was blown away, impurities were filtered away by a 50 μm filter screen. A red blood cell lysis buffer (3-4 mL) was added into an obtained filtrate. Then, after placement for 5 min, 800 g centrifugation was performed for 5 min to remove the supernatant. The obtained cells were placed into a 1640 culture medium (containing 10% fetal calf serum, 20 ng/mL GMCSF and 10 ng/ml IL4) to be resuspended, and were inoculated into a 6-well plate at an inoculation density of 100000 cells/ml culture medium. The materials were placed into a 37° C. cell incubator containing 5% CO2. Half liquid change was performed once every 2 days. Suspended cells and loose wall attached cells were collected on the seventh day, and were […], and the volume of a culture medium was 100 μL.
# Cell transfection: lipid nanoparticles coated with luciferase mRNA were added into a 96-well all-white ELISA plate laid with primary cells. The adding volume of the mRNA lipid nanoparticles in each well was controlled to be 10 μL. Then, the materials were put into a 37° C. incubator containing 5% CO2 for 16 h.
# Transfection efficiency detection: 20 μL of a substrate ONE-Glo™ Luciferase was added into each well of a 96-well all-white ELISA plate. After 1 min, detection was performed by a multifunctional or multimode microplate reader.
row,SMILES,Luciferase luminescence intensity
1,CCCCCCCCCC(CCCCCCC)C(=O)OCC(CCCCCC)OC(=O)C(C)CCN(C)C (stereo not shown) [E3C79A10],7.4E+ 04
2,CCCCCCCCCC(CCCCCCC)C(=O)OCC(CCCCCC)OC(=O)CCCCN(C)C (stereo not shown) [E3C79A11],9.0E+ 04
3,CCCCCCCCCC(CCCCCCC)C(=O)OCC(CCCCCC)OC(=O)CCCCCN(C)C (stereo not shown) [E3C79A12],6.7E+ 04
4,CCCCCCCCCCCCCC(C)C(=O)OCC(CCCCCCC)OC(=O)CCCCN(C)C (stereo not shown) [E4C72A11],5.8E+ 04
5,CCCCCCCCCCCCCCC(C)C(=O)OCC(CCCCCCC)OC(=O)CCCN(C)C (stereo not shown) [E4C74A9],6.9E+ 04
6,CCCCCCCCCCCCCCC(C)C(=O)OCC(CCCCCCC)OC(=O)C(C)CCN(C)C (stereo not shown) [E4C74A10],4.7E+ 04
7,CCCCCCCCCCCCCCC(C)C(=O)OCC(CCCCCCC)OC(=O)CCCCN(C)C (stereo not shown) [E4C74A11],6.0E+ 04
8,CCCCCCCCCC(CCCCCCC)C(=O)OCC(CCCCCCC)OC(=O)CCCN(C)C (stereo not shown) [E4C79A9],2.2E+ 04
9,CCCCCCCCCC(CCCCCCC)C(=O)OCC(CCCCCCC)OC(=O)C(C)CCN(C)C (stereo not shown) [E4C79A10],1.3E+ 04
10,CCCCCCCCCC(CCCCCCC)C(=O)OCC(CCCCCCC)OC(=O)CCCCN(C)C (stereo not shown) [E4C79A11],3.4E+ 04
11,CCCCCCCCCC(CCCCCCC)C(=O)OCC(CCCCCCC)OC(=O)CCCCCN(C)C (stereo not shown) [E4C79A12],2.5E+ 04
12,CCCCCCCCCCCCCCCCCC(=O)OCC(CCCCCCCC)OC(=O)CCCCCN(C)C (stereo not shown) [E5C13A12],1.1E+ 04
13,CCCCCCCCC(COC(=O)C(CCCCCC)CCCCCCCC)OC(=O)CCCCN(C)C (stereo not shown) [E5C71A11],4.6E+ 04
14,CCCCCCCCCCCCCCC(C)C(=O)OCC(CCCCCCCC)OC(=O)C(C)CCN(C)C (stereo not shown) [E5C74A10],2.9E+ 04
15,CCCCCCCCCCCCCCC(C)C(=O)OCC(CCCCCCCC)OC(=O)CCCCN(C)C (stereo not shown) [E5C74A11],7.7E+ 03
16,CCCCCCCCCC(CCCCCCC)C(=O)OCC(CCCCCCCC)OC(=O)CCCCN(C)C (stereo not shown) [E5C79A11],3.6E+ 04
17,"CCCCCCCC/C=C/CCCCCCCC(=O)OCC(CCCCCCCC)OC(=O)C1CCN(C)CC1 (stereo not shown) [E5C82A23, 1-(Octadec-9-Enoyloxy) Decan-2-Yl 1-Methylpiperidine-4-Carboxylate]",1.4E+ 04
18,CCCCCCCCCC(COC(=O)C(CCCCCC)CCCCCCCC)OC(=O)CCCCN(C)C (stereo not shown) [E6C71A11],3.4E+ 04
19,CCCCCCCCCCCCCC(C)C(=O)OCC(CCCCCCCCC)OC(=O)CCCCN(C)C (stereo not shown) [E6C72A11],5.0E+ 04
20,CCCCCCCCCCCCCCC(C)C(=O)OCC(CCCCCCCCC)OC(=O)C(C)CCN(C)C (stereo not shown) [E6C74A10],1.1E+ 04
21,CCCCCCCCCCCCCCC(C)C(=O)OCC(CCCCCCCCC)OC(=O)CCCCN(C)C (stereo not shown) [E6C74A11],4.5E+ 04
22,CCCCCCCCCC(COC(=O)C(CCCCCCC)CCCCCCCCC)OC(=O)C(C)CCN(C)C (stereo not shown) [E6C79A10],4.6E+ 04

row,SMILES,Luciferase luminescence intensity
1,CCCCCCCCCC(COC(=O)C(CCCCCCC)CCCCCCCCC)OC(=O)CCCCN(C)C (stereo not shown) [E6C79A11],5.4E+ 04
2,CCCCCCCCCC(COC(=O)C(CCCCCCC)CCCCCCCCC)OC(=O)CCCCCN(C)C (stereo not shown) [E6C79A12],2.5E+ 04
3,CCCCCCCCCCC(COC(=O)C(CCCCCC)CCCCCCCC)OC(=O)C(C)CCN(C)C (stereo not shown) [E7C71A10],8.3E+ 04
4,CCCCCCCCCCC(COC(=O)C(CCCCCC)CCCCCCCC)OC(=O)CCCCN(C)C (stereo not shown) [E7C71A11],4.4E+ 04
5,CCCCCCCCCCCCCCC(C)C(=O)OCC(CCCCCCCCCC)OC(=O)CCCN(C)C (stereo not shown) [E7C74A9],4.8E+ 04
6,CCCCCCCCCCCCCCC(C)C(=O)OCC(CCCCCCCCCC)OC(=O)C(C)CCN(C)C (stereo not shown) [E7C74A10],3.7E+ 04
7,CCCCCCCCCCCCCCC(C)C(=O)OCC(CCCCCCCCCC)OC(=O)CCCCN(C)C (stereo not shown) [E7C74A11],3.2E+ 04
8,CCCCCCCCCCC(COC(=O)C(CCCCCCC)CCCCCCCCC)OC(=O)CCCN(C)C (stereo not shown) [E7C79A9],5.6E+ 04
9,CCCCCCCCCCC(COC(=O)C(CCCCCCC)CCCCCCCCC)OC(=O)C(C)CCN(C)C (stereo not shown) [E7C79A10],3.6E+ 04
10,CCCCCCCCCCC(COC(=O)C(CCCCCCC)CCCCCCCCC)OC(=O)CCCCN(C)C (stereo not shown) [E7C79A11],4.2E+ 04
11,CCCCCCCCCCC(COC(=O)C(CCCCCCC)CCCCCCCCC)OC(=O)CCCCCN(C)C (stereo not shown) [E7C79A12],3.5E+ 04
12,CCCCCCCCCCCC(COC(=O)C(CCCCCC)CCCCCCCC)OC(=O)CCCN(C)C (stereo not shown) [E8C71A9],8.8E+ 04
13,CCCCCCCCCCCC(COC(=O)C(CCCCCC)CCCCCCCC)OC(=O)CCCCN(C)C (stereo not shown) [E8C71A11],5.4E+ 04
14,CCCCCCCCCCCC(COC(=O)C(CCCCCC)CCCCCCCC)OC(=O)C1CCN(C)CC1 (stereo not shown) [E8C71A23],1.5E+ 04
15,CCCCCCCCCCCCCC(C)C(=O)OCC(CCCCCCCCCCC)OC(=O)CCCN(C)C (stereo not shown) [E8C72A9],6.1E+ 04
16,CCCCCCCCCCCCCC(C)C(=O)OCC(CCCCCCCCCCC)OC(=O)CCCCN(C)C (stereo not shown) [E8C72A11],7.3E+ 04
17,CCCCCCCCCCCCCCC(C)C(=O)OCC(CCCCCCCCCCC)OC(=O)CCCN(C)C (stereo not shown) [E8C74A9],8.5E+ 04
18,CCCCCCCCCCCCCCC(C)C(=O)OCC(CCCCCCCCCCC)OC(=O)CCCCN(C)C (stereo not shown) [E8C74A11],4.0E+ 04
19,CCCCCCCCCCCCCCC(C)C(=O)OCC(CCCCCCCCCCC)OC(=O)C1CCN(C)CC1 (stereo not shown) [E8C74A23],1.3E+ 04
20,CCCCCCCCCCCC(COC(=O)C(CCCCCCC)CCCCCCCCC)OC(=O)CCCN(C)C (stereo not shown) [E8C79A9],3.6E+ 04
21,CCCCCCCCCCCCC(COC(=O)C(CCCC)CCCCCC)OC(=O)C(C)CCN(C)C (stereo not shown) [E9C56A10],8.8E+ 04
22,CCCCCCCCCCCCC(COC(=O)C(CCCCC)CCCCC)OC(=O)C(C)CCN(C)C (stereo not shown) [E9C57A10],3.2E+ 04

row,SMILES,Luciferase luminescence intensity
1,CCCCCCCCCCCCC(COC(=O)C(C)(C)CCCCCCCC)OC(=O)CCCCN(C)C (stereo not shown) [E9C58A11],3.5E+ 04
2,CCCCCCCCCCCCC(COC(=O)C(CC)CCCCCCCCC)OC(=O)C1CCN(C)CC1 (stereo not shown) [E9C60A23],1.8E+ 04
3,CCCCCCCCCCCCC(COC(=O)C(CCC)CCCCCCCC)OC(=O)C(C)CCN(C)C (stereo not shown) [E9C62A10],4.3E+ 04
4,CCCCCCCCCCCCC(COC(=O)CCCCCCCCCC(C)CC)OC(=O)C(C)CCN(C)C (stereo not shown) [E9C63A10],5.6E+ 04
5,CCCCCCCCCCCCC(COC(=O)C(CCCCCC)CCCCCC)OC(=O)CCCN(C)C (stereo not shown) [E9C64A9],8.9E+ 04
6,CCCCCCCCCCCC(COC(=O)C(CCCCCC)CCCCCC)OC(=O)C(C)CCN(C)C (stereo not shown) [E9C64A10],6.1E+ 04
7,CCCCCCCCCCCCC(COC(=O)C(C)(C)CCCCCCCCCC)OC(=O)CCCN(C)C (stereo not shown) [E9C66A9],2.3E+ 04
8,CCCCCCCCCCCCC(COC(=O)CCCCCCCCCCCC(C)C)OC(=O)C(C)CCN(C)C (stereo not shown) [E9C67A10],7.8E+ 04
9,CCCCCCCCCCCCCCC(C)C(=O)OCC(CCCCCCCCCCCCC)OC(=O)CCCN(C)C (stereo not shown) [E10C74A9],1.3E+ 04
10,CCCCCCCCCCCCCCC(C)C(=O)OCC(CCCCCCCCCCCCC)OC(=O)C1CCN(C)CC1 (stereo not shown) [E10C74A23],1.0E+ 04
11,CCCCCCCCCCCCCC(COC(=O)C(CCCCCCC)CCCCCCCCC)OC(=O)CCCN(C)C (stereo not shown) [E10C79A9],1.3E+ 04
12,"CCCCCCCCCCCCCCC(COC(=O)CCCCCCCCCCC)OC(=O)CCCN(C)C (stereo not shown) [E11C7A9, 2-((4-(Dimethylamino)Butanoyl)Oxy)Hexadecyl Dodecanoate]",1.5E+ 04
13,CCCCCCCCCCCCCCC(COC(=O)C(CCCCC)CCCCC)OC(=O)CCCCN(C)C (stereo not shown) [E11C57A11],6.4E+ 04
14,CCCCCCCCCCCCCCC(COC(=O)C(C)(C)CCCCCCCC)OC(=O)CCCCN(C)C (stereo not shown) [E11C58A11],2.3E+ 04
15,CCCCCCCCCCCCCCC(COC(=O)C(CC)CCCCCCCCC)OC(=O)CCCCN(C)C (stereo not shown) [E11C60A11],3.3E+ 04
16,CCCCCCCCCCCCCCC(COC(=O)C(CCC)CCCCCCCC)OC(=O)CCCCN(C)C (stereo not shown) [E11C62A11],4.1E+ 04
17,CCCCCCCCCCCCCCCC(COC(=O)CCCCCCCCCC)OC(=O)CCCCN(C)C (stereo not shown) [E12C6A11],1.2E+ 04
18,CCCCCCCCCCCCCCCC(COC(=O)C(CCCCCC)CCCCCC)OC(=O)C1CCN(C)CC1 (stereo not shown) [E12C64A23],1.8E+ 04
19,CCCCCCCCCCCCCCCC(COC(=O)C(C)CCCCCCCCCCCCCC)OC(=O)CCCCN(C)C (stereo not shown) [E12C74A11],1.1E+ 04
20,C=CCCCCC(COC(=O)C(CCCCCCC)CCCCCCCCC)OC(=O)C(C)CCN(C)C (stereo not shown) [E15C79A10],8.9E+ 04

# Source: patent US12679801B2, “Amino lipid and preparation method and application thereof” (Shenzhen MagicRNA Biotechnology Co., Ltd., priority 2022, dated 2026)
